In patent US10676446B2, “Bicyclic quinazolinone derivatives” (Hoffmann-La Roche Inc., priority 2015, dated 2020) one finds IC50 data, which are given here for 44 compounds.

The target of this experiment is human ATX (autotaxin, ENPP2), His-tagged (Homo sapiens (Human), UniProt Q13822). In words: Human ATX enzyme inhibition assay (fluorescence quenching, MR121 substrate). Type of experiment: biochemical. The following applies: 30 nM ATX, 1 μM MR121 substrate, 30° C., pH 8.0. In outline:
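His-tagged human ATX (30 nM final) preincubated 15 min at 30 °C with serially diluted compound in Tris-HCl pH 8.0 buffer with Ca2+, Mg2+ and 0.01% Triton X-100. MR121-labelled fluorescence-quenched substrate then added (1 μM final) for a further 15 min at 30 °C; fluorescence read-out.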
In turn, `CN(Cc1ccc(C#N)c(Cl)c1)C(=O)Cn1cnc2ccc(C3CCN(C(=O)C4CCO4)CC3)cc2c1=O` (centres unmarked) [Example 141] registered an IC50 of 0.002 µM.
Next, `CN(Cc1ccc(C#N)c(Cl)c1)C(=O)Cn1cnc2ccc(C3CCN(C(=O)C4COC4)CC3)cc2c1=O` [Example 142]: 0.06 µM.
`CN(Cc1ccc(C#N)c(Cl)c1)C(=O)Cn1cnc2ccc(C3CCN(CC4CCOC4)CC3)cc2c1=O` (centres unmarked) [Example 143, N-[(3-Chloro-4-cyanophenyl)methyl]-N-methyl-2-[4-oxo-6-[1-(oxolan-3-ylmethyl)piperidin-4-yl]quinazolin-3-yl]acetamide] showed an IC50 of 0.046 µM.
Next, `CN(Cc1ccc(Cl)c(C#N)c1)C(=O)Cn1cnc2ccc(C3CCN(CC4CCOC4)CC3)cc2c1=O` (centres unmarked) [Example 144, N-[(4-Chloro-3-cyanophenyl)methyl]-N-methyl-2-[4-oxo-6-[1-(oxolan-3-ylmethyl)piperidin-4-yl]quinazolin-3-yl]acetamide]: 0.086 µM.
The value for `CN(Cc1ccc(C#N)c(Cl)c1)C(=O)Cn1cnc2ccc(C3CCN(S(C)(=O)=O)CC3)cc2c1=O` [Example 145, N-[(3-Chloro-4-cyanophenyl)methyl]-N-methyl-2-[6-(1-methylsulfonylpiperidin-4-yl)-4-oxoquinazolin-3-yl]acetamide] was 0.082 µM; that for `COCC(=O)N1CCC(c2ccc3ncn(CC(=O)N(Cc4ccc(Cl)c(Cl)c4)C4CC4)c(=O)c3c2)CC1` [Example 146, N-Cyclopropyl-N-[(3,4-dichlorophenyl)methyl]-2-[6-[1-(2-methoxyacetyl)piperidin-4-yl]-4-oxoquinazolin-3-yl]acetamide] was 0.001 µM; that for `CC(=O)N1CC2CC1CC2c1ccc2ncn(CC(=O)NCc3ccc(Cl)c(Cl)c3)c(=O)c2c1` (centres unmarked) [Example 147, 2-[6-[2-Acetyl-2-azabicyclo[2.2.1]heptan-5-yl]-4-oxoquinazolin-3-yl]-N-[(3,4-dichlorophenyl)methyl]acetamide] was 0.14 µM.
Next, `CC(=O)N1CCN(c2ccc3ncn(C(C)C(=O)NCc4ccc(Cl)c(Cl)c4)c(=O)c3c2)CC1` (centres unmarked) [Example 148, 2-[6-(4-Acetylpiperazin-1-yl)-4-oxoquinazolin-3-yl]-N-[(3,4-dichlorophenyl)methyl]propanamide]: 0.015 µM; `CC(=O)N1CCN(c2ccc3ncn(C(C)C(=O)N(C)Cc4ccc(Cl)c(Cl)c4)c(=O)c3c2)CC1` (centres unmarked) [Example 149, 2-[6-(4-Acetylpiperazin-1-yl)-4-oxoquinazolin-3-yl]-N-[(3,4-dichlorophenyl)methyl]-N-methylpropanamide]: 0.039 µM; `CC(=O)N1CCN(c2ccc3ncn(C4(C(=O)NCc5ccc(Cl)c(Cl)c5)CC4)c(=O)c3c2)CC1` [Example 150, 1-[6-(4-Acetylpiperazin-1-yl)-4-oxoquinazolin-3-yl]-N-[(3,4-dichlorophenyl)methyl]cyclopropane-1-carboxamide]: 0.091 µM.
Compound `CC(=O)N1CCN(c2ccc3nc(C)n(CC(=O)NCc4ccc(Cl)c(Cl)c4)c(=O)c3c2)CC1` [Example 151, 2-[6-(4-Acetylpiperazin-1-yl)-2-methyl-4-oxoquinazolin-3-yl]-N-[(3,4-dichlorophenyl)methyl]acetamide] had an IC50 of 0.021 µM.
Compound `CC(=O)N1CCN(c2ccc3[nH]c(=O)n(CC(=O)NCc4ccc(Cl)c(Cl)c4)c(=O)c3c2)CC1` [Example 152, 2-[6-(4-Acetylpiperazin-1-yl)-2,4-dioxo-1H-quinazolin-3-yl]-N-[(3,4-dichlorophenyl)methyl]acetamide] yielded a half-maximal inhibitory concentration (IC50) of 0.18 µM. This IC50 lies about 8.6-fold higher than the previous one.
In turn, `COCCC(NC(=O)Cn1cnc2ccc(N3CCN(C(C)=O)CC3)cc2c1=O)c1ccc(Cl)c(Cl)c1` (centres unmarked) [Example 153, 2-[6-(4-Acetylpiperazin-1-yl)-4-oxoquinazolin-3-yl]-N-[1-(3,4-dichlorophenyl)-3-methoxypropyl]acetamide] registered a concentration for half-maximal inhibition (IC50) of 0.036 µM.
The value for `CN(Cc1ccc(C#N)c(Cl)c1)C(=O)Cn1cnc2ccc(C3CCN(C(=O)CC#N)CC3)cc2c1=O` [Example 154, N-[(3-Chloro-4-cyanophenyl)methyl]-2-[6-[1-(2-cyanoacetyl)piperidin-4-yl]-4-oxoquinazolin-3-yl]-N-methylacetamide] was 0.002 µM; that for `CN(Cc1ccc(C#N)c(Cl)c1)C(=O)Cn1cnc2ccc(C3CCN(C(=O)CCC#N)CC3)cc2c1=O` [Example 155, N-[(3-Chloro-4-cyanophenyl)methyl]-2-[6-[1-(3-cyanopropanoyl)piperidin-4-yl]-4-oxoquinazolin-3-yl]-N-methylacetamide] was 0.153 µM; that for `C[C@@H](O)C(=O)N1CCC(c2ccc3ncn(CC(=O)N(C)Cc4ccc(C#N)c(Cl)c4)c(=O)c3c2)CC1` [Example 156] was 0.561 µM.
As to `CC(C)[C@@H](O)C(=O)N1CCC(c2ccc3ncn(CC(=O)N(C)Cc4ccc(C#N)c(Cl)c4)c(=O)c3c2)CC1` [Example 157], 0.01 µM corresponded to half-maximal inhibition (IC50).
The value for `CO[C@H](C)C(=O)N1CCC(c2ccc3ncn(CC(=O)N(C)Cc4ccc(C#N)c(Cl)c4)c(=O)c3c2)CC1` [Example 158] was 0.002 µM; that for `CO[C@@H](C)C(=O)N1CCC(c2ccc3ncn(CC(=O)N(C)Cc4ccc(C#N)c(Cl)c4)c(=O)c3c2)CC1` [Example 159] was 0.001 µM; that for `COC(=O)N1CCC(c2ccc3ncn(CC(=O)N(C)Cc4ccc(C#N)c(Cl)c4)c(=O)c3c2)CC1` [Example 160, Methyl 4-[3-[2-[(3-chloro-4-cyanophenyl)methyl-methylamino]-2-oxoethyl]-4-oxoquinazolin-6-yl]piperidine-1-carboxylate] was 0.158 µM.
Next, `CC(=O)N1CCC(c2ccc3ncn(CC(=O)NCc4cc(Cl)cc(C(F)(F)F)c4)c(=O)c3c2)CC1` [Example 161, 2-[6-(1-Acetylpiperidin-4-yl)-4-oxoquinazolin-3-yl]-N-[[3-chloro-5-(trifluoromethyl)phenyl]methyl]acetamide]: 0.028 µM; `CC(=O)N1CCC(c2ccc3ncn(CC(=O)NCc4ccc(F)c(C(F)(F)F)c4)c(=O)c3c2)CC1` [Example 162]: 0.044 µM; `CC(=O)N1CCC(c2ccc3ncn(CC(=O)NCc4ccc(Cl)c(C(F)(F)F)c4)c(=O)c3c2)CC1` [Example 163]: 0.001 µM.
The compound `CC(=O)N1CCC(c2ccc3ncn(CC(=O)NCc4cc(Cl)cc(Cl)c4)c(=O)c3c2)CC1` [Example 164] had a 50% inhibitory concentration (IC50) of 0.025 µM.
The compound `CN(Cc1ccc(Cl)c(Cl)c1)C(=O)Cn1cnc2ccc(C3CCN(C(=O)CS(N)(=O)=O)CC3)cc2c1=O` [Example 165, N-[(3,4-Dichlorophenyl)methyl]-N-methyl-2-[4-oxo-6-[1-(2-sulfamoylacetyl)piperidin-4-yl]quinazolin-3-yl]acetamide] registered a concentration for half-maximal inhibition (IC50) of 0.02 µM.
In turn, `COCCOCC(=O)N1CCC(c2ccc3ncn(CC(=O)N(C)Cc4ccc(Cl)c(Cl)c4)c(=O)c3c2)CC1` [Example 166] gave an IC50 of 0.627 µM.
The value for `CO[C@H](C)C(=O)N1CCC(c2ccc3ncn(CC(=O)N(C)Cc4ccc(Cl)c(Cl)c4)c(=O)c3c2)CC1` [Example 167] was 0.004 µM; that for `CO[C@@H](C)C(=O)N1CCC(c2ccc3ncn(CC(=O)N(C)Cc4ccc(Cl)c(Cl)c4)c(=O)c3c2)CC1` [Example 168] was 0.027 µM.
The value for `CC(C)[C@@H](O)C(=O)N1CCC(c2ccc3ncn(CC(=O)N(C)Cc4ccc(Cl)c(Cl)c4)c(=O)c3c2)CC1` [Example 169] was 0.035 µM; that for `CC(C)[C@H](O)C(=O)N1CCC(c2ccc3ncn(CC(=O)N(C)Cc4ccc(Cl)c(Cl)c4)c(=O)c3c2)CC1` [Example 170] was 0.014 µM.
The value for `COCC(=O)N1CCC(c2ccc3ncn(CC(=O)N(C)Cc4ccc(Cl)c(Cl)c4)c(=O)c3c2)CC1` [Example 171] was 0.003 µM; that for `CN(Cc1ccc(Cl)c(Cl)c1)C(=O)Cn1cnc2ccc(C3CCN(C(=O)C(C)(C)O)CC3)cc2c1=O` [Example 172] was 0.021 µM.
On to `COC(C)C(=O)N1CCC(c2ccc3ncn(CC(=O)N(C)Cc4ccc(Cl)c(Cl)c4)c(=O)c3c2)CC1` (centres unmarked) [Example 173], for which 0.008 µM corresponded to half-maximal inhibition (IC50).
Next, `C[C@@H](O)C(=O)N1CCC(c2ccc3ncn(CC(=O)N(C)Cc4ccc(Cl)c(Cl)c4)c(=O)c3c2)CC1` [Example 174]: 0.002 µM; `C[C@H](O)C(=O)N1CCC(c2ccc3ncn(CC(=O)N(C)Cc4ccc(Cl)c(Cl)c4)c(=O)c3c2)CC1` [Example 175]: 0.015 µM.
The value for `CN(Cc1ccc(Cl)c(Cl)c1)C(=O)Cn1cnc2ccc(C3CCN(C(=O)C4(O)CCC4)CC3)cc2c1=O` [Example 176] was 0.046 µM; that for `CN(Cc1ccc(Cl)c(Cl)c1)C(=O)Cn1cnc2ccc(C3CCN(C(=O)C(O)CO)CC3)cc2c1=O` (centres unmarked) [Example 177] was 0.036 µM.
The compound `CN(Cc1ccc(Cl)c(Cl)c1)C(=O)Cn1cnc2ccc(C3CCN(C(=O)C4COCCO4)CC3)cc2c1=O` (centres unmarked) [Example 178] came in with an IC50 of 0.034 µM.
Next, `CN(Cc1ccc(Cl)c(Cl)c1)C(=O)Cn1cnc2ccc(C3CCN(C(=O)C4(O)CC4)CC3)cc2c1=O` [Example 179]: 0.156 µM.
The compound `CN(Cc1ccc(Cl)c(Cl)c1)C(=O)Cn1cnc2ccc(C3CCN(C(=O)C4CCCO4)CC3)cc2c1=O` (centres unmarked) [Example 180] showed an IC50 of 0.005 µM.
`CN(Cc1ccc(Cl)c(Cl)c1)C(=O)Cn1cnc2ccc(C3CCN(C(=O)C4(C)CCCO4)CC3)cc2c1=O` (centres unmarked) [Example 181] yielded a half-inhibitory concentration (IC50) of 0.008 µM.
Next, `CN(Cc1ccc(Cl)c(Cl)c1)C(=O)Cn1cnc2ccc(C3CCN(C(=O)C4CCOC4)CC3)cc2c1=O` (centres unmarked) [Example 182]: 0.008 µM; `CN(Cc1ccc(Cl)c(Cl)c1)C(=O)Cn1cnc2ccc(C3CCN(C(=O)c4cnco4)CC3)cc2c1=O` [Example 183]: 0.028 µM; `CC(=O)N1CCC(O)(c2ccc3ncn(CC(=O)N(C)Cc4ccc(Cl)c(Cl)c4)c(=O)c3c2)CC1` [Example 184, 2-[6-(1-Acetyl-4-hydroxypiperidin-4-yl)-4-oxoquinazolin-3-yl]-N-[(3,4-dichlorophenyl)methyl]-N-methylacetamide]: 0.086 µM.

A word on the IC50: it is the concentration at which inhibition is half-maximal.
